In US11717508B2, “Compounds, compositions, and methods for inhibiting bacterial growth” (priority 2016, dated 2023):
Several values for one entry are separate records, joined by “and”; a condition that tells them apart may be missing. Equal entries are not always repeated. Where two headings read alike, the source gives them in different places.

How the values were obtained:
[1] = tested on: CDC1551(ΔdosR) mutant; format: cell-based; conditions: for log2 Fold change: DosR mutant, HC101A vs DMSO; for Counts per million (CPM): DosR mutant treated with HC101A, replicates 1, 2
[2] = tested on: DosS; format: biochemical, Mycobacterium tuberculosis
[3] = tested on: DosR-regulated genes (dosR, hspX and tgs1); format: cell-based, Mycobacterium tuberculosis
[4] = biological target: DosT (Mycobacterium tuberculosis, UniProt P9WGK1, G115L); format: biochemical
[5] = tested on: DosRST regulon; format: cell-based; conditions: 40 μM, 6 days

## C[C@@H]1CC[C@H]2[C@@H](C)C(=O)O[C@@H]3O[C@]4(C)CC[C@@H]1[C@]32OO4 [HC101A, artemisinin, reference compound]
[1]; 40 μM, 6 days, >2-fold, p<0.05
  downregulated genes in CDC1551(ΔdosR) mutant treated with compound: 69 genes
[1]; gene MT0169 Rv0160c PE
  log2 Fold change: −1.408
[1]; gene MT0258 Rv0244c fadE5
  log2 Fold change: −1.069
[1]; gene MT0273 Rv0260c
  log2 Fold change: −1.854
[1]; gene MT0292 Rv0280 PPE
  Counts per million (CPM): 31.79 CPM and 16.54 CPM
  log2 Fold change: −1.247
[1]; gene MT0329 Rv0315
  Counts per million (CPM): 113.2 CPM and 189.1 CPM
  log2 Fold change: −1.246
[1]; gene MT0456 Rv0440 groEL2
  Counts per million (CPM): 5,842.91 CPM and 4,666.11 CPM
  log2 Fold change: −1.245
[1]; gene MT0483 Rv0467 aceA
  Counts per million (CPM): 884.5 CPM and 561.1 CPM
  log2 Fold change: −1.499
[1]; gene MT0484
  Counts per million (CPM): 179.4 CPM and 142.8 CPM
  log2 Fold change: −1.278
[1]; gene MT0493 Rv0475
  Counts per million (CPM): 790.8 CPM and 938.1 CPM
  log2 Fold change: −1.077
[1]; gene MT0532 Rv0511 cysG
  log2 Fold change: 1.218
[1]; gene MT0533 Rv0512 hemB
  log2 Fold change: 1.276
[1]; gene MT0583 Rv0557
  log2 Fold change: 1.113
[1]; gene MT0586 Rv0560c
  log2 Fold change: 1.95
[1]; gene MT0658 Rv0630c recB
  log2 Fold change: 1.021
[1]; gene MT0705 Rv0676c mmpL5
  log2 Fold change: 1.881
[1]; gene MT0706 Rv0677c mmpS5
  log2 Fold change: 1.662
[1]; gene MT0706.1 Rv0678
  log2 Fold change: 1.572
[1]; gene MT0772.5 Rv0747 PE_PGRS
  log2 Fold change: 1.043
[1]; gene MT0808 Rv0784
  log2 Fold change: 2.116
[1]; gene MT0901 Rv0878c PPE
  Counts per million (CPM): 18.57 CPM and 12.14 CPM
  log2 Fold change: −1.047
[1]; gene MT0908 Rv0885
  Counts per million (CPM): 437.9 CPM and 441.4 CPM
  log2 Fold change: −3.4
[1]; gene MT0909 Rv0886 fprB
  Counts per million (CPM): 103.6 CPM and 55.4 CPM
  log2 Fold change: −3.149
[1]; gene MT0911 Rv0888
  Counts per million (CPM): 9.416 CPM and 8.907 CPM
  log2 Fold change: −1.599
[1]; gene MT0915.1
  Counts per million (CPM): 9.867 CPM and 9.495 CPM
  log2 Fold change: −1.202
[1]; gene MT0956 Rv0929 pstC2
  log2 Fold change: 1.037
[1]; gene MT1019 Rv0990c
  Counts per million (CPM): 62.69 CPM and 83.49 CPM
  log2 Fold change: −1.236
[1]; gene MT1020
  Counts per million (CPM): 529.4 CPM and 1,032.48 CPM
  log2 Fold change: −1.261
[1]; gene MT1073 Rv1043c
  log2 Fold change: 1.069
[1]; gene MT1123 Rv1091 PE_PGRS
  log2 Fold change: 1.015
[1]; gene MT1224 Rv1187 rocA
  Counts per million (CPM): 50.05 CPM and 29.85 CPM
  log2 Fold change: −1.028
[1]; gene MT1233 Rv1195 PE
  Counts per million (CPM): 282.5 CPM and 86.53 CPM
  log2 Fold change: −1.537
[1]; gene MT1296 Rv1257c
  log2 Fold change: 1.198
[1]; gene MT1297 Rv1258c
  log2 Fold change: 1.744
[1]; gene MT1303 Rv1265
  log2 Fold change: 1.132
[1]; gene MT1385
  Counts per million (CPM): 26.31 CPM and 28.68 CPM
  log2 Fold change: −1.733
[1]; gene MT1424 Rv1380 pyrB
  log2 Fold change: 1.245
[1]; gene MT1425 Rv1381 pyrC
  log2 Fold change: 1.176
[1]; gene MT1426
  log2 Fold change: 1.289
[1]; gene MT1427 Rv1383 car A
  log2 Fold change: 1.005
[1]; gene MT1428 Rv1384 carB
  log2 Fold change: 1.115
[1]; gene MT1429 Rv1385 pyrF
  log2 Fold change: 1.522
[1]; gene MT1430 Rv1386 PE
  Counts per million (CPM): 77.39 CPM and 47.87 CPM
  log2 Fold change: −1.005
[1]; gene MT1431 Rv1387 PPE
  Counts per million (CPM): 317.7 CPM and 543.6 CPM
  log2 Fold change: −1.201
[1]; gene MT1484 Rv1439c
  Counts per million (CPM): 6.965 CPM and 6.852 CPM
  log2 Fold change: −1.508
[1]; gene MT1585.1
  Counts per million (CPM): 293.5 CPM and 393.7 CPM
  log2 Fold change: −2.24
[1]; gene MT1586 Rv535 Rv1535
  Counts per million (CPM): 44.69 CPM and 38.96 CPM
  log2 Fold change: −1.971
[1]; gene MT1620 Rv1569 bioF
  log2 Fold change: 1.182
[1]; gene MT1627
  Counts per million (CPM): 22.44 CPM and 21.44 CPM
  log2 Fold change: −1.25
[1]; gene MT1628 Rv1592c
  Counts per million (CPM): 334.3 CPM and 332.3 CPM
  log2 Fold change: −1.21
[1]; gene MT1736
  Counts per million (CPM): 181.3 CPM and 300.2 CPM
  log2 Fold change: −1.039
[1]; gene MT1775
  Counts per million (CPM): 17.8 CPM and 12.82 CPM
  log2 Fold change: −1.012
[1]; gene MT1836 Rv1787 PPE
  log2 Fold change: 1.847
[1]; gene MT1854 Rv1804c
  Counts per million (CPM): 12.83 CPM and 20.46 CPM
  log2 Fold change: −1.101
[1]; gene MT1893 Rv1845c
  log2 Fold change: 1.059
[1]; gene MT1922 Rv1873
  Counts per million (CPM): 11.35 CPM and 17.72 CPM
  log2 Fold change: −1.314
[1]; gene MT1969 Rv1918c PPE
  Counts per million (CPM): 90.23 CPM and 98.57 CPM
  log2 Fold change: −1.009
[1]; gene MT2040 Rv1986
  Counts per million (CPM): 79.07 CPM and 31.42 CPM
  log2 Fold change: −2.384
[1]; gene MT2126 Rv2066 cobl
  log2 Fold change: 1.049
[1]; gene MT2166 Rv2107 PE
  Counts per million (CPM): 25.86 CPM and 35.24 CPM
  log2 Fold change: −1.899
[1]; gene MT2167 Rv2108 PPE
  Counts per million (CPM): 31.6 CPM and 38.76 CPM
  log2 Fold change: −1.672
[1]; gene MT2168
  Counts per million (CPM): 9.545 CPM and 9.201 CPM
  log2 Fold change: −1.358
[1]; gene MT2264 Rv2208 cobS
  log2 Fold change: 1.264
[1]; gene MT2278 Rv2220 glnA1
  Counts per million (CPM): 635.9 CPM and 701.1 CPM
  log2 Fold change: −1.188
[1]; gene MT2284 Rv2225 panB
  Counts per million (CPM): 197.5 CPM and 213.5 CPM
  log2 Fold change: −1.005
[1]; gene MT2304 Rv2244 acpM
  Counts per million (CPM): 831.8 CPM and 1,835.61 CPM
  log2 Fold change: −1.454
[1]; gene MT2305 Rv2245 kasA
  Counts per million (CPM): 1,175.19 CPM and 2,060.94 CPM
  log2 Fold change: −1.196
[1]; gene MT2306
  Counts per million (CPM): 704.1 CPM and 1,234.02 CPM
  log2 Fold change: −1.017
[1]; gene MT2391 Rv2329c narK1
  Counts per million (CPM): 72.04 CPM and 74 CPM
  log2 Fold change: −1.058
[1]; gene MT2417
  Counts per million (CPM): 8.836 CPM and 16.05 CPM
  log2 Fold change: −1.114
[1]; gene MT2503 Rv2428 ahpC
  Counts per million (CPM): 372.7 CPM and 897.9 CPM
  log2 Fold change: −1.173
[1]; gene MT2504 Rv2429 ahpD
  Counts per million (CPM): 163.9 CPM and 315.8 CPM
[1]; gene MT2506
  Counts per million (CPM): 236.2 CPM and 203 CPM
  log2 Fold change: −1.06
[1]; gene MT2526 Rv2450c
  Counts per million (CPM): 892.4 CPM and 239.7 CPM
  log2 Fold change: −1.032
[1]; gene MT2615 Rv2540c aroF
  log2 Fold change: 1.402
[1]; gene MT2631
  log2 Fold change: 1.063
[1]; gene MT2698 Rv2623
  Counts per million (CPM): 41.08 CPM and 44.83 CPM
  log2 Fold change: −1.072
[1]; gene MT2778 Rv2705c
  Counts per million (CPM): 45.21 CPM and 56.67 CPM
  log2 Fold change: −1.01
[1]; gene MT2849 Rv2779c
  Counts per million (CPM): 26.89 CPM and 12.92 CPM
  log2 Fold change: −1.668
[1]; gene MT2850 Rv2780 ald
  Counts per million (CPM): 1,263.03 CPM and 369.1 CPM
  log2 Fold change: −1.861
[1]; gene MT2863 Rv2794c
  log2 Fold change: 1.021
[1]; gene MT3065 Rv2987c leuD
  Counts per million (CPM): 140.2 CPM and 20.16 CPM
  log2 Fold change: −1.094
[1]; gene MT3110 Rv3026c
  log2 Fold change: 1.612
[1]; gene MT3118 Rv3033
  Counts per million (CPM): 22.06 CPM and 33.57 CPM
[1]; gene MT3132
  Counts per million (CPM): 35.54 CPM and 21.04 CPM
  log2 Fold change: −1.912
[1]; gene MT3133 Rv3048c nrdG
  log2 Fold change: −2.008
[1]; gene MT3134 Rv3049c
  log2 Fold change: −2.181
[1]; gene MT3178 Rv3094c
  log2 Fold change: −1.319
[1]; gene MT3293 Rv3199c
  log2 Fold change: 1.039
[1]; gene MT3327 Rv3230c
  log2 Fold change: 1.145
[1]; gene MT3441 Rv3338
  log2 Fold change: −1.641
[1]; gene MT3481 Rv3371
  log2 Fold change: −1.101
[1]; gene MT3498 Rv3391 acrA1
  log2 Fold change: −1.036
[1]; gene MT3581 Rv3477 PE
  log2 Fold change: −1.558
[1]; gene MT3591 Rv3487c lipF
  log2 Fold change: −1.301
[1]; gene MT3947 Rv3839
  log2 Fold change: −1.144
[1]; gene MT3963 Rv3848
  log2 Fold change: −1.017
[1]; gene MT3969 Rv3854c
  log2 Fold change: −2.018
[1]; gene MT3970 Rv3855
  log2 Fold change: −1.5
[1]; gene MT3976 Rv3862c
  log2 Fold change: −1.387
[1]; gene MT3978 Rv3864
  log2 Fold change: −1.324
[1]; gene MT3988 Rv3874
  log2 Fold change: −1.066
[1]; gene MT3989 Rv3875 esat6
  log2 Fold change: −1.043
[2]
  oxidation of DosS (E87L) and DosS (G117L) proteins by artemisinin: resistant to oxidation
[3]
  resistance to artemisinin of DosT (G115L) vs WT DosT or DosT (G85L): ~5 fold
[4]
  response of DosT (G115L) protein to artemisinin: exhibits artemisinin resistance
[5]
  genes inhibited that are not modulated in the CDC1551(ΔdosR) mutant: 157 genes
[5]; >2-fold, p<0.05
  genes downregulated by compound that are also downregulated in the CDC1551(ΔdosR) mutant: 85 genes
